# Results: publication PMC5904222, “Synthesis and anticancer activity of multisubstituted purines and xanthines with one or two propynylthio and aminobutynylthio groups” (Medicinal Chemistry Research, 2018)
# Test system: SNB-19 (human glioblastoma)
# Experiment: WST-1 proliferation assay, SNB-19
# Assay type: cell-based
# Settings: Homo sapiens, SNB-19, 72 h, SNB-19 cells, 72 h exposure, read-out: Antiproliferative activity IC50 SNB-19
# Method: (§1) Compounds were evaluated for their anticancer activity using three cultured cell lines: SNB-19 (human glioblastoma, DSMZ - German Collection of Microorganisms and Cell Cultures, Braunschweig, Germany), C-32 (human amelanotic melanoma, ATCC-American Type Culture Collection, Manassas, VA, USA), MDA-MB-231 (human adenocarcinoma mammary gland, ATCC, Manassas, VA, USA), and HFF-1 (human fibroblast cell line, ATCC, Manassas, VA, USA). The cultured cells were kept at 37 °C and 5% CO2. The cells were seeded (1 × 10^4 cells/well/100 μL DMEM supplemented with 10% FCS and streptomycin and penicillin) using 96-well plates (Corning). The cells were counted in a hemocytometer (Burker’s chamber) using a phase contrast Olympus IX50 microscope equipped with Sony SSC-DC58 AP camera and Olympus DP10 digital camera.
# (§2) The antiproliferative effect of the compounds obtained from both the cancer and the normal cells was determined using the Cell Proliferation Reagent WST-1 assay (Roche Diagnostics, Mannheim, Germany). This colorimetric assay is based on the viable cell’s ability to cause the bright red-colored stable tetrazolium salt (2-(4-iodophenyl)-3-(4-nitrophenyl)-5-(2,4-disulfophenyl)-2H-tetrazolium, monosodium salt) to cleave to the dark red soluble formazan by cellular enzymes. An expansion in the number of viable cells results in an increase in the overall activity of mitochondrial dehydrogenases in the sample. An increase in the amount of formazan dye formed correlates to the number of metabolically active cells in the culture. The formazan dye produced by metabolically active cells is quantified by a scanning ELISA reader that measures the absorbance of the dye solution at appropriate wavelengths. The examined cells were exposed to the tested compounds for 72 h at various concentrations between 0.1 and 100 μg/mL (prepared initially at a concentration of 1 mg/mL in DMSO). The control was performed in order to check that DMSO has no effect on the cells at the concentration used. The cells were incubated with WST-1 (10 μL) for 1 h and the absorbance of the samples was measured against a background control at 450 nm using a microplate reader with a reference wavelength at 600 nm. The results are expressed as the means of at least two independent experiments performed in triplicate. […] The IC50 values (a concentration of a compound that is required for 50% inhibition) were calculated from the dose–response relationship with respect to control.
row,IC50 [µg/mL],SMILES
1,11.6,"Cn1c(SCC#CCN2CCCCC2)nc2nc(Cl)nc(SCC#CCN3CCCCC3)c21 [Compound 15b, 2-Chloro-6,8-di(4-N-piperidinylbut-2-ynylthio)-7-methylpurine]"
2,26.1,"Cn1c(SCC#CCN2CCOCC2)nc2nc(Cl)nc(SCC#CCN3CCOCC3)c21 [Compound 15c, 2-Chloro-6,8-di(4-N-morpholinylbut-2-ynylthio)-7-methylpurine]"
3,2.9 to 5.3,"CCN(CC)CC#CCSc1nc(Cl)nc2nc(SCC#CCN(CC)CC)n(C)c12 [Compound 15d, 2-Chloro-6,8-di(diethylaminobut-2-ynylthio)-7-methylpurine]"

# Same assay, conditions: SNB-19 cells, 72 h exposure
row,SMILES,Antiproliferative activity IC50 SNB-19 [µg/mL]
1,"N.N.[Cl][Pt][Cl] [Cisplatin, cisplatin, reference compound]",1.46
2,"CCN(CC)CC#CCSc1nc(Cl)nc2nc(SCC#CCN(CC)CC)n(C)c12 [Compound 15d, 2-Chloro-6,8-di(diethylaminobut-2-ynylthio)-7-methylpurine]",2.91

# Test system: C-32 (human amelanotic melanoma)
# Experiment: WST-1 proliferation assay, C-32
# Assay type: cell-based
# Settings: C-32 cells, 72 h exposure
# Method: as §1, §2
row,SMILES,Antiproliferative activity IC50 C-32 [µg/mL]
1,"N.N.[Cl][Pt][Cl] [Cisplatin, cisplatin, reference compound]",5.71
2,"CCN(CC)CC#CCSc1nc(Cl)nc2nc(SCC#CCN(CC)CC)n(C)c12 [Compound 15d, 2-Chloro-6,8-di(diethylaminobut-2-ynylthio)-7-methylpurine]",5.33

# Same assay, conditions: Homo sapiens, C32, 72 h, C-32 cells, 72 h exposure, read-out: Antiproliferative activity IC50 C-32
row,IC50 [µg/mL],SMILES
1,270,"C#CCSc1nc(Cl)nc2nc(SCC#C)n(C)c12 [Compound 14, 2-chloro-6,8-di(prop-2-ynylthio)-7-methylpurine]"
2,19.1,"Cn1c(SCC#CCN2CCCCC2)nc2nc(Cl)nc(SCC#CCN3CCCCC3)c21 [Compound 15b, 2-Chloro-6,8-di(4-N-piperidinylbut-2-ynylthio)-7-methylpurine]"
3,2.9 to 5.3,"CCN(CC)CC#CCSc1nc(Cl)nc2nc(SCC#CCN(CC)CC)n(C)c12 [Compound 15d, 2-Chloro-6,8-di(diethylaminobut-2-ynylthio)-7-methylpurine]"

# Test system: MDA-MB-231 (human adenocarcinoma mammary gland)
# Experiment: WST-1 proliferation assay, MDA-MB-231
# Assay type: cell-based
# Settings: Homo sapiens, MDA-MB-231, 72 h, MDA-MB-231 cells, 72 h exposure, read-out: Antiproliferative activity IC50 MDA-MB-231
# Method: as §1, §2
row,IC50 [µg/mL],SMILES
1,10,"C#CCSc1nc(Cl)nc2nc(SCC#C)n(C)c12 [Compound 14, 2-chloro-6,8-di(prop-2-ynylthio)-7-methylpurine]"
2,38.1,"Cn1c(SCC#CCN2CCCCC2)nc2nc(Cl)nc(SCC#CCN3CCCCC3)c21 [Compound 15b, 2-Chloro-6,8-di(4-N-piperidinylbut-2-ynylthio)-7-methylpurine]"
3,74,"Cn1c(SCC#CCN2CCOCC2)nc2nc(Cl)nc(SCC#CCN3CCOCC3)c21 [Compound 15c, 2-Chloro-6,8-di(4-N-morpholinylbut-2-ynylthio)-7-methylpurine]"
4,10,"CCN(CC)CC#CCSc1nc(Cl)nc2nc(SCC#CCN(CC)CC)n(C)c12 [Compound 15d, 2-Chloro-6,8-di(diethylaminobut-2-ynylthio)-7-methylpurine]"

# Same assay, conditions: MDA-MB-231 cells, 72 h exposure
row,SMILES,Antiproliferative activity IC50 MDA-MB-231 [µg/mL]
1,"N.N.[Cl][Pt][Cl] [Cisplatin, cisplatin, reference compound]",11.85

# Test system: HFF-1 (human fibroblast cell line)
# Experiment: WST-1 proliferation assay, normal fibroblasts HFF-1
# Assay type: cell-based
# Settings: normal human fibroblasts HFF-1
# Method: as §1
# as §2, with “The control was performed in order to check that DMSO has no effect on the cells at the concentration used.” left out
row,SMILES,"cytotoxicity on the normal human fibroblasts (HFF-1), in words"
1,"C#CCSc1nc(Cl)nc2nc(SCC#C)n(C)c12 [Compound 14, 2-chloro-6,8-di(prop-2-ynylthio)-7-methylpurine]",relatively weak cytotoxicity
2,"Cn1c(SCC#CCN2CCOCC2)nc2nc(Cl)nc(SCC#CCN3CCOCC3)c21 [Compound 15c, 2-Chloro-6,8-di(4-N-morpholinylbut-2-ynylthio)-7-methylpurine]",relatively weak cytotoxicity
3,"CCN(CC)CC#CCSc1nc(Cl)nc2nc(SCC#CCN(CC)CC)n(C)c12 [Compound 15d, 2-Chloro-6,8-di(diethylaminobut-2-ynylthio)-7-methylpurine]",cytotoxic

# Same assay, conditions: normal human fibroblasts HFF-1, 72 h exposure, WST-1
row,SMILES,Antiproliferative activity IC50 HFF-1 [µg/mL]
1,"N.N.[Cl][Pt][Cl] [Cisplatin, cisplatin, reference compound]",1.21

# Same assay, conditions: normal human fibroblasts HFF-1, 72 h exposure, WST-1; read-out: Antiproliferative activity IC50 HFF-1
row,SMILES,IC50 [µg/mL]
1,"C#CCSc1nc(Cl)nc2nc(SCC#C)n(C)c12 [Compound 14, 2-chloro-6,8-di(prop-2-ynylthio)-7-methylpurine]",20.1
2,"Cn1c(SCC#CCN2CCCCC2)nc2nc(Cl)nc(SCC#CCN3CCCCC3)c21 [Compound 15b, 2-Chloro-6,8-di(4-N-piperidinylbut-2-ynylthio)-7-methylpurine]",5.5
3,"Cn1c(SCC#CCN2CCOCC2)nc2nc(Cl)nc(SCC#CCN3CCOCC3)c21 [Compound 15c, 2-Chloro-6,8-di(4-N-morpholinylbut-2-ynylthio)-7-methylpurine]",36.4
4,"CCN(CC)CC#CCSc1nc(Cl)nc2nc(SCC#CCN(CC)CC)n(C)c12 [Compound 15d, 2-Chloro-6,8-di(diethylaminobut-2-ynylthio)-7-methylpurine]",1

# Test system: not given
# Experiment: not given
# Settings: not given
row,melting point [°C],SMILES
1,161 to 163,"C#CCSc1nc(Cl)nc2nc(SCC#C)n(C)c12 [Compound 14, 2-chloro-6,8-di(prop-2-ynylthio)-7-methylpurine]"
2,108 to 110,"Cn1c(SCC#CCN2CCCCC2)nc2nc(Cl)nc(SCC#CCN3CCCCC3)c21 [Compound 15b, 2-Chloro-6,8-di(4-N-piperidinylbut-2-ynylthio)-7-methylpurine]"
3,112 to 113,"Cn1c(SCC#CCN2CCOCC2)nc2nc(Cl)nc(SCC#CCN3CCOCC3)c21 [Compound 15c, 2-Chloro-6,8-di(4-N-morpholinylbut-2-ynylthio)-7-methylpurine]"
4,88 to 90,"CCN(CC)CC#CCSc1nc(Cl)nc2nc(SCC#CCN(CC)CC)n(C)c12 [Compound 15d, 2-Chloro-6,8-di(diethylaminobut-2-ynylthio)-7-methylpurine]"
